Earlier results on two compounds are cited in patent US7105537B2, “2-substituted cyclic amines as calcium sensing receptor modulators” (Bristol-Myers Squibb Company, priority 2003, dated 2006).

The test system of one series is postmenopausal women. As to conditions: placebo-controlled trial.
For series [1], the system named is osteopenic ovariectomized (OVX) rats. As to conditions: oral administration, in the presence of an anti-resorptive agent.
The conditions of series [2]: intravenous bolus injection.

With “PTH peptide fragment (1–34): "the PTH peptide fragment (1–34) was shown to reduce the risk of spine fractures and non-traumatic, non-spine fractures" (SVSEIQLMHNLGKHLNSMERVEWLRKKLQDVHNF; Parathyroid hormone; UniProt P01270 32-65, looked up, fragment)”, in the series on postmenopausal women, the “reduction of the risk of non-traumatic, non-spine fractures” value was 54% and the “reduction of the risk of spine fractures” value is given as 65%.

Consider `CC(C)(Cc1ccc2ccccc2c1)NC[C@@H](O)COc1cccc(Cl)c1C#N` [NPS-2143], for which, in series [1], the bone mass entry is listed as “increase in bone mas”. In series [2], the “serum PTH” value was “transient increase in serum PTH”.
